From patent US6218431A, “Substituted biphenyls” (Bayer Corporation, priority 1997, dated 2001) come the findings set out here.

The assay has as its target T1, glucagon receptor (Homo sapiens, UniProt P47871).
T1 construct: expressed in transfected cells; host or cells: Chinese Hamster Ovary cells (CHO-HGR), membranes
The assay can be described thus: glucagon receptor binding assay (125I-glucagon, CHO-HGR membranes). The following applies: for IC50: 125I-glucagon, 60 min at room temperature, read-out: IC50; for inhibition at 20 µM: reported where 20 μM did not reduce glucagon binding by 50%. The protocol:
The affinity for the glucagon receptor of compounds of the present invention is determined by the glucagon receptor binding assay. Membranes were prepared from Chinese Hamster Ovary cells expressing the glucagon receptor (CHO-HGR) by scraping the cells into hypotonic lysis buffer (10 mM Tris, pH 7.4, 2 mM EDTA, 5 mM MgCl2 and 1 mM PMSF) and subjecting the material to Polytron homogenization. Nuclei were removed by a 15-min 800×g centrifugation step conducted at 4° C. Membranes containing the receptor were collected by centrifugation at 15,000×gfor 15 min at 4° C. The membranes were washed once in lysis buffer and suspended in 0.25 M sucrose, 10 mM Tris, 5 mM EDTA, pH 7.4. The membranes were used in ligand binding studies as reported (Yoo-Warren, H., Willse, A. G., Hancock, N., Hull, J., McCaleb, M., and Livingston, J. Regulation of Rat Glucagon Receptor Expression. Biochem. Biophysical Res. Commun. 1994, 205, 347-353). In brief, 10 ug of membrane protein was incubated in 130 μl of binding buffer that consisted of 20 mM Tris, […], 1 mM EDTA, 1 mg/ml BSA, and 1 mg/ml bacitracin. The membrane suspension was placed in each well of a 96-well filtration plate (glass fiber type C, Millipore). […] Following the addition of test compound, 50 μl of ^125 I-glucagon (9 fmol) (NEN) was added to each well. Control wells contained membranes, 0.5% DMSO (solvent for test compounds), radiolabeled glucagon without and with excess native glucagon (1 μM) to establish nonspecific binding. The plates were incubated for 60 min at room temperature, and then filtered on a Mllipore vacuum apparatus. Following a wash step with ice-cold PBS/0.1% BSA, the filters were punched into test tubes, and the membrane bound radioactivity was determined.

T1 sequence (P47871 26-477): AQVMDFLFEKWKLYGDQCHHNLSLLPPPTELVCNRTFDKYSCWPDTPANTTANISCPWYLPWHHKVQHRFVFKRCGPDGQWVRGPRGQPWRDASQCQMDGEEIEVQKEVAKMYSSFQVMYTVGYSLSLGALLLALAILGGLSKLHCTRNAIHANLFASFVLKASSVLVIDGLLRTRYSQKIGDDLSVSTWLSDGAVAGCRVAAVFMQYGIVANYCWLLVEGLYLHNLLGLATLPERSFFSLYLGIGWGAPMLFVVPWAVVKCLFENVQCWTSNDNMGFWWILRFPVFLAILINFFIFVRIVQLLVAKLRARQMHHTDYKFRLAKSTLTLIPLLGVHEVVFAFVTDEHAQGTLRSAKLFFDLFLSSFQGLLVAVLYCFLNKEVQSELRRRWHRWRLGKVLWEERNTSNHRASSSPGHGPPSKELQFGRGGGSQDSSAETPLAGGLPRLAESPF

Broadly, the IC50 is the concentration that gives 50% inhibition. Take `CCCCCCc1c(C(C)C)nc(C(C)C)c(CO)c1-c1ccccc1` [Example 16, 2,6Diisopropyl-3-hydroxymethyl-4-phenyl-5-hexylpyridine]: the IC50 worked out at 850 nM.

With `CCCc1c(C(C)C)cc(C(C)C)c(C(C)O)c1-c1ccc(F)cc1` (single isomer, unassigned; (+)) [Example 245, (+)-3,5-Diisopropyl-2-(1-hydroxyethyl)-6-propyl-4'-fluoro-1,1'-biphenyl], the IC50 was 300 nM. The term inhibition denotes the percentage by which the read-out fell short of the control. As to `CCCCCc1c(C(C)C)nc(C(C)C)c(CO)c1-c1ccc(F)c(C(C)O)c1` (centres unmarked) [Example 182, 2,6-Diisopropyl-3-hydroxymethyl-4-[4-fluoro-3-(1-hydroxyethyl)phenyl]-5-pentylpyridine], the inhibition at 20 µM stood at 49.1%. For the compound `CCCCCc1c(C(C)C)nc(C(C)C)c(CO)c1-c1cccc(F)c1` [Example 128, 2,6-Diisopropyl-3-hydroxymethyl-4-(3-fluorophenyl)-5-pentylpyridine], the IC50 was determined as 3000 nM.

Turning to `C=CCC(O)c1c(C(C)C)nc(C(C)C)c(CCCCC)c1-c1ccc(F)cc1` (racemic) [Example 116], 20 µM produced 17% inhibition.

In the case of `CCCCCc1c(CCc2ccccc2)nc(C(C)C)c(CO)c1-c1ccc(F)cc1` [Example 227, 2-Isopropyl-3-hydroxymethyl-4-(4-fluorophenyl)-5-pentyl-6-(2-phenylethyl)pyridine], the IC50 worked out at 1300 nM.

With `CC(C)c1nc(C(C)C)c(Cn2ccnc2)c(-c2ccc(F)cc2)c1CO` [Example 76, 2,6-Diisopropyl-3-hydroxymethyl-4-(4-fluorophenyl)-5-(imidazol-1-yl)-methylpyridine], 20 µM produced 5.18% inhibition. In the case of `CCCC=Cc1c(C(C)C)nc(C(C)C)c(CO)c1-c1ccc(F)c(F)c1` [Example 158, 2,6-diisopropyl-3-hydroxymethyl-4-(3,4-difluorophenyl)-5-(pent-1-enyl)pyridine], the IC50 is 1800 nM.

In the case of `CCCCCc1c(C(C)C)nc(C(C)C)c(CNCC)c1-c1ccc(F)cc1` [Example 123, 2,6-Diisopropyl-3-(ethylamino)methyl-4-(4-fluorophenyl)-5-pentylpyridine], the inhibition at 20 µM is 49.2%. `CC(C)c1nc2c(c(-c3ccc(F)cc3)c1C(C)O)CCCC2(C)C` (centres unmarked) [Example 231, 2-Isopropyl-3-(1-hydroxyethyl)-4-(4-fluorophenyl)-5,6,7,8-tetrahydro-8,8-dimethylquinoline]: the half-inhibitory concentration (IC50) is 500 nM. As to `CCCCCc1c(C(C)C)nc(C(C)C)c(CO)c1-c1ccc(F)c(C(O)c2ccc(F)cc2)c1` (stereo not drawn) [Example 181, 2,6-Diisopropyl-3-hydroxymethyl-4-[4-fluoro-3-(α-hydroxy-4-fluorobenzyl)phenyl]-5-pentylpyridine], the inhibition at 20 µM came out at 46%. With `C=Cc1c(C(C)C)nc(C(C)C)c(CO)c1-c1ccc(F)cc1` [Example 22, 2,6Diisopropyl-3-hydroxymethyl-4-(4-fluorophenyl)-5-ethenylpyridine], the IC50 came out at 1100 nM. Turning to `CCCC=Cc1c(C(C)C)nc(C(C)C)c(CO)c1-c1ccoc1` [Example 187, 2,6-Diisopropyl-3-hydroxymethyl-4-(3-furyl)-5-(pent-1-enyl)pyridine], the 50% inhibitory concentration (IC50) was 12000 nM. On to `Cc1ccc(CCc2c(C(C)C)nc(C(C)C)c(CO)c2-c2ccc(F)cc2)cc1` [Example 45, 2,6-Diisopropyl-3-hydroxyl methyl-4-(4-fluorophenyl)-5-[2-(4-methyl-phenyl)ethyl]pyridine], for which the IC50 is 1100 nM. As for `COC(=O)c1c(C(C)C)nc(C(C)C)c(CN2CCC(N3CCCCC3)CC2)c1-c1ccc(F)cc1` [Example 73, Methyl-2,6-diisopropyl-4-(4-fluorophenyl)-5-(4piperidinopiperidin-1-yl)methyl-3-pyridinecarboxylate], the inhibition at 20 µM was 17.5%.

`CCC(O)c1c(C(C)C)nc(C(C)C)c(CO)c1-c1ccc(F)cc1` (racemic) [Example 94, (±)-2,6-Diisopropyl-3-hydroxymethyl-4-(4-fluorophenyl)-5-(1-hydroxy-propyl)pyridine] had an inhibition at 20 µM of 38.5%.

For the compound `CCCC=Cc1c(C(C)C)nc(C(C)C)c(CO)c1-c1ccc(F)cc1F` [Example 150, 2,6-Diisopropyl-3-hydroxymethyl-4-(2,4-difluorophenyl)-5-(pent-1-enyl)pyridine], the half-maximal inhibitory concentration (IC50) is 4500 nM. On to `CC(C)c1nc(C(C)C)c(CN2CCC(c3ccccc3)CC2)c(-c2ccc(F)cc2)c1CO` [Example 72], for which the inhibition at 20 µM was found to be 42.1%. `CCCCCc1c(CN2CCOCC2)nc(C(C)C)c(CO)c1-c1ccc(F)cc1` [Example 199, 2-Morpholinomethyl-3-pentyl-4-(4-fluorophenyl)-5-hydroxymethyl-6-isopropylpyridine] had an inhibition at 20 µM of 8.67%. Consider `CCCCCc1c(C(C)C)nc(C(C)C)c(CO)c1-c1ccc(F)c(F)c1` [Example 159, 2,6-Diisopropyl-3-hydroxymethyl-4-(3,4-difluorophenyl)-5-pentyl-pyridine], for which the concentration for half-maximal inhibition (IC50) was 1100 nM. With `Cc1cccc(SCc2c(C(C)C)nc(C(C)C)c(CO)c2-c2ccc(F)cc2)c1` [Example 57, 2,6-Diisopropyl-3-hydroxymethyl-4-(4-fluorophenyl)-5-[(3-methyl-phenyl)thio]methylpyridine], the half-inhibitory concentration (IC50) is 1100 nM.

Regarding `CCCCc1c(C(C)C)nc(C(C)C)c(CO)c1-c1ccccc1` [Example 18, 2,6-Diisopropyl-3-hydroxymethyl-4-phenyl-5-butylpyridine], the IC50 was 750 nM.

With `CC(C)c1nc2c(c(-c3ccc(F)cc3)c1C(C)O)CCC2(C)C` (centres unmarked) [Example 235, 2-Isopropyl-3-(1-hydroxyethyl)-4-(4-fluorophenyl)-7,7-dimethyl-5H-cyclopenta[b]pyridine], the 50% inhibitory concentration (IC50) came to 3100 nM. The compound `CC(C)c1nc(C(C)C)c(CCCN(C)C)c(-c2ccc(F)cc2)c1CO` [Example 89, 2,6-Diisopropyl-3-hydroxymethyl-4-(4fluorophenyl)-5-[(3-dimethyl-amino)propyl]pyridine] yielded an inhibition at 20 µM of 36%. Compound `CCCC=Cc1c(C(C)C)nc(C(C)C)c(CO)c1-c1cccc(OCc2ccccc2)c1` [Example 152, 2,6-Diisopropyl-3-hydroxymethyl-4-(3-benzyloxyphenyl)-5-(pent-1-enyl)pyridine] gave an inhibition at 20 µM of 25.4%. In the case of `CCCCCCc1c(C(C)C)nc(C(C)C)c(CO)c1-c1ccc(F)cc1` [Example 23, 2,6-Diisopropyl-3-hydroxymethyl-4-(4-fluorophenyl)-5-hexylpyridine], the IC50 amounted to 390 nM. In the case of `CCCC=Cc1c(C)nc(C)c(CO)c1-c1ccccc1` [Example 3], the inhibition at 20 µM is 1.52%. For `C#Cc1ccccc1-c1c(C=CCCC)c(C(C)C)nc(C(C)C)c1CO` [Example 156, 2,6-Diisopropyl-3-hydroxymethyl-4-(2-ethynylphenyl)-5-(pent-1-enyl)-pyridine], the inhibition at 20 µM was 26.1%. As for `CCCCCc1c(C(C)C)nc(C(C)C)c(C(O)C(F)(F)F)c1-c1ccc(F)cc1` (racemic) [Example 118, (±)-2,6-Diisopropyl-3-(2,2,2-trifluoro-1-hydroxy)ethyl-4-(4-fluoro-phenyl)-5-pentylpyridine], the IC50 was 13000 nM. Still for that read-out and setting: to `Cc1ccc(/C=C/c2c(C(C)C)nc(C(C)C)c(CO)c2-c2ccc(F)cc2)cc1` [Example 42, 2,6-Diisopropyl-3-hydroxymethyl-4-(4-fluorophenyl)-5-[2(E)-(4-methyl-phenyl)ethenyl]pyridine] belongs 700 nM. `CCCCCc1c(C(C)C)nc(C(C)C)c(CO)c1-c1ccc(F)cc1` [Example 1]: the concentration for half-maximal inhibition (IC50) is 600 nM.

Take `CC(C)c1nc(C(C)C)c(CCCC2OCCO2)c(-c2ccc(F)cc2)c1CO` [Example 46]: the IC50 amounted to 9000 nM. In the case of `CSCc1c(C(C)C)nc(C(C)C)c(CO)c1-c1ccc(F)cc1` [Example 67, 2,6-Diisopropyl-3-hydroxymethyl-4-(4-fluorophenyl)-5-(methylthio)-methylpyridine], the 50% inhibitory concentration (IC50) worked out at 1100 nM.

`CCCC=Cc1c(CC)nc(CC)c(CO)c1-c1ccccc1` [Example 6] showed an inhibition at 20 µM of 34.2%. As to `CCCc1c(C(C)C)nc(C(C)C)c(CO)c1-c1ccccc1` [Example 17], the concentration for half-maximal inhibition (IC50) came to 600 nM. In the case of `CC(C)c1nc(C(C)C)c(CO)c(-c2ccc(F)cc2)c1C=CCCc1ccccc1` [Example 38, 2,6-Diisopropyl-3-hydroxymethyl-4-(4-fluorophenyl)-5-(4phenyl-1-butenyl)pyridine], the IC50 was 600 nM. For `CC(C)c1nc(C(C)C)c(CSc2cccc(F)c2)c(-c2ccc(F)cc2)c1CO` [Example 59, 2,6-Diisopropyl-3-hydroxymethyl-4-(4-fluorophenyl)-5-[(3-fluoro-phenyl)thio]methylpyridine], the IC50 came to 1000 nM. On to `CCCc1c(C(C)C)cc(C(C)C)c(C(C)O)c1-c1ccc(F)cc1O` (centres unmarked) [Example 242, 3,5-Diisopropyl-2-(1-hydroxyethyl)-6-propyl-4'-fluoro-2'-hydroxy-1,1'-biphenyl], for which the IC50 came out at 5 nM.
